Patent US12251478B2 (Arizona Board of Regents on behalf of Arizona State …, priority 2019, dated 2025)

Tests used:
acute wounds = experiment: Acute wound healing, full-thickness punch biopsy wound model in immunocompetent mice; assay type: in vivo, BALB/c mice
Source text: (§1) The histamine composition was applied topically on 5-millimeter mid-dorsal full thickness wounds and covered with either Tegaderm™ (transparent film dressing) or a silk dressing and irradiated with 800 nm near infrared laser (NIR) light.
(§2) Post-wounding, the mice were recovered for 7-11 days and their healing kinetics were monitored for different treatment groups.
(§3) An example protocol is as follows. Full-thickness punch biopsy dorsal wounds were created on mice, bioactive wound dressing applied, and the wounds were splinted to prevent wound closure by contraction. Either immunomodulator molecule was delivered on the day of wounding or a later time-point to accelerate wound healing.
FIG. 1 includes images of a wound closure procedure, which was performed with BALB/c mice (about 8-10 weeks old), with a wound size of about 5 mm (n=10), and with a histamine concentration of 3.4 mg/kg per mouse.
Additionally, Elastin-Like Polypeptide (ELP) was used alone as a control. We tested whether ELP in itself influenced healing efficacy. These studies were performed in BALB/c mice (acute wounds), 5 mm wounds, ELP concentration 2 μM (per wound/mouse). Histamine and GFNPs concentration were 3.4 mg/kg and 2 μM, respectively. Histamine and GFNPs concentration were same as previous reported studies. The GFNPs used in this study is SDF1-ELP.
A histamine double dosage control (e.g., two sequential dosage of histamine) was investigated. […] These studies were performed in BALB/c mice (acute wounds) and in 5 mm wounds. Histamine and GFNPs concentration were 3.4 mg/kg and 2 μM, respectively. Histamine and GFNPs concentration were same as previous reported studies. The GFNPs used in this study is SDF1-ELP. We delivered histamine in the following manner: Histamine along with silk fibroin dressing on Day 0 post wounding (like previous studies); Histamine delivered on Day 3 post wounding. Wounds were treated with PBS and silk fibroin film alone on Day 0; Histamine along with silk fibroin on Day 0 post wounding+ second dose of histamine on Day 3 post wounding delivered using subcutaneous injection; and Histamine along with silk fibroin on Day 0 post wounding+ GFNPs delivered sequentially on Day 3 post wounding.

[1] = system: acute and slow healing diabetic wounds; experiment: Full-thickness punch biopsy wound model, statements covering acute and diabetic wounds together; assay type: in vivo, mice; details: histamine applied topically on 5 mm full thickness wounds, covered with Tegaderm or silk dressing, 800 nm NIR laser
Source text: as §1, §2, §3

## NCCc1c[nH]cn1 [histamine]
Acute wounds; acute wound model
  contractile activity: higher contractile activity
  neovascularization: higher neovascularization
  re-epithelialization: higher re-epithelialization
  reduction of the dermal gap of a wound: improves reduction of the dermal gap
  resolution of inflammation: better solution of inflammation
Acute wounds; acute wounds, day 7, compared between dressings with histamine or saline
  tissue strength / ultimate tensile strength (UTS) of healed skin: higher skin strength recovery
[1]
  tissue biomechanical recovery: improved tissue biomechanical recovery
  wound area: Significant reduction in wound area
